Assay results published in patent US10051861B2, “N-arylamidine-substituted trifluoroethyl sulfide derivatives as acaricides and insecticides” (BAYER CROPSCIENCE AG, priority 2011, dated 2018).

system: greenhouse red spider mite (Tetranychus urticae); test: Tetranychus urticae spray test, OP-resistant (TETRUR), bean leaf disks; type: in vivo; conditions: Tetranychus urticae, foliar, 144 h, application rate 500 g/ha, after 6 days; read-out: efficacy (spider mites killed)
Protocol: After 6 days, the effect in % is determined.

Structure (SMILES)	pest or weed control at 500 g/ha
CN/C(=N/c1ccc(Cl)c(SCC(F)(F)F)c1)C(F)(F)F [Ia-217]	100%
CN/C(=N/c1cc(SCC(F)(F)F)c(C)cc1F)c1ccc(Cl)s1 [Ia-218]	90%
N#CC1(/C(N)=N/c2cc(SCC(F)(F)F)c(Cl)cc2Cl)CC1 [Ia-219]	90%
Cc1ccc(/C(=N/c2cc(SCC(F)(F)F)c(C)cc2F)N2CCOCC2)cc1 [Ia-221]	100%
Cc1ccc(/N=C(/N(C)C)C(F)(F)F)cc1SCC(F)(F)F [Ia-222]	100%
Cc1cc(F)c(/N=C(/N)c2ccc([N+](=O)[O-])cc2)cc1SCC(F)(F)F [Ia-223]	90%
CCN/C(=N\c1cc(SCC(F)(F)F)c(C)cc1C)c1cccnc1 [Ia-224]	100%
Cc1cc(F)c(/N=C(\N)C(C)C)cc1SCC(F)(F)F [Ia-225]	100%
CN/C(=N/c1cc(SCC(F)(F)F)c(C)cc1F)C(F)(F)F [Ia-226]	100%
CCN(C)/C(=N\c1cc(SCC(F)(F)F)c(C)cc1C)c1ccc(Cl)nc1 [Ia-227]	100%
Cc1cc(F)c(/N=C(/c2ccccc2Cl)N2CCOCC2)cc1SCC(F)(F)F [Ia-230]	100%
CCN(C)/C(=N\c1cc(SCC(F)(F)F)c(C)cc1C)c1ccc(Cl)cc1 [Ia-231]	90%
Cc1cc(C)c(SCC(F)(F)F)cc1/N=C(\NC1CC1)c1ccc(Cl)nc1 [Ia-232]	90%
CN/C(CC(F)(F)F)=N\c1cc(SCC(F)(F)F)c(C)cc1F [Ia-233]	100%
Cc1cc(Cl)c(SCC(F)(F)F)cc1/N=C(\N)c1cnccn1 [Ia-234]	100%
FC(F)(F)CSc1cc(/N=C(\NCCc2ncc(C(F)(F)F)cc2Cl)C2CC2)c(Cl)cc1Cl [Ia-235]	90%
COc1cc(C)c(SCC(F)(F)F)cc1/N=C(/N)C(F)(F)F [Ia-236, 2,2,2-Trifluoro-N′-{2-methoxy-4-methyl-5-[(2,2,2-trifluoroethyl)sulfanyl]phenyl}ethanimidamide]	100%
CN(C)/C(=N\c1cc(SCC(F)(F)F)c(Cl)cc1Cl)c1ccc(Cl)nc1 [Ia-237]	90%
CN/C(=N\c1cc(SCC(F)(F)F)c(C)cc1C)c1ccncc1 [Ia-239]	100%
Cc1cc(C)c(SCC(F)(F)F)cc1/N=C(/c1ccccc1)N(C)C [Ia-240]	90%

Structure (SMILES)	pest or weed control at 500 g/ha
Cc1cc(C)c(SCC(F)(F)F)cc1/N=C(\NCC(F)(F)F)C1CCCC1 [Ia-241]	90%
Cc1cc(F)c(/N=C(\c2ccc(C(F)(F)F)cc2)N(C)C)cc1SCC(F)(F)F [Ia-242]	100%
C#CCN/C(=N\c1cc(SCC(F)(F)F)c(Cl)cc1Cl)C1CC1 [Ia-244]	90%
Cc1cc(F)c(/N=C(\c2ccccc2C(F)(F)F)N(C)C)cc1SCC(F)(F)F [Ia-245]	90%
Cc1cc(F)c(/N=C(\NC2CCS(=O)(=O)C2)C2CC2)cc1SCC(F)(F)F (stereo not drawn) [Ia-247]	100%
CN/C(=N\c1cc(SCC(F)(F)F)c(Cl)cc1Cl)c1ccccn1 [Ia-248]	90%
C#CCN/C(=N\c1cc(SCC(F)(F)F)c(C)cc1F)C1CC1 [Ia-249]	100%
COc1cc(C)c(SCC(F)(F)F)cc1/N=C(/c1ccc(Cl)cc1)N(C)C [Ia-252]	90%
FC(F)CN/C(=N\c1cc(SCC(F)(F)F)c(Cl)cc1Cl)C1CC1 [Ia-253]	90%
FC(F)(F)CN/C(=N\c1cc(SCC(F)(F)F)c(Cl)cc1Cl)C1CCCC1 [Ia-254]	90%
COc1cc(C)c(SCC(F)(F)F)cc1/N=C(\N)C1(Cl)CC1 [Ia-255]	90%
FC(F)CN/C(=N\c1cc(SCC(F)(F)F)c(Cl)cc1Cl)C1CCCC1 [Ia-256]	90%
Cc1cc(C)c(SCC(F)(F)F)cc1/N=C(\NCC(F)F)C1CCCC1 [Ia-257]	90%
COC/C(N)=N/c1cc(SCC(F)(F)F)c(Cl)cc1Cl [Ia-258]	90%
FC(F)(F)CN/C(=N\c1cc(SCC(F)(F)F)c(Cl)cc1Cl)C1CCC1 [Ia-259]	90%
COc1cc(C)c(SCC(F)(F)F)cc1/N=C(\N)c1ccncn1 [Ia-260]	90%
Cc1cc(F)c(/N=C(\NCC(F)(F)F)C2CCC2)cc1SCC(F)(F)F [Ia-261]	90%
N/C(=N\c1cc(SCC(F)(F)F)c(Cl)cc1Cl)C1CCCO1 (stereo not drawn) [Ia-262]	90%
COc1ccc(/C(N)=N\c2cc(SCC(F)(F)F)c(C)cc2F)cc1 [Ia-263]	90%
